Results reported in PMC11323006, “Designing Coiled Coils for Heterochiral Complexation to Enhance Binding and Enzymatic Stability” (Biomacromolecules, 2024).
One block for each molecule: values may come before it. Square brackets hold non-standard residues; d marks the D form. Peptide text beside a SMILES is read from it.

Columns and labels:
[1] = biological target: Proteinase K (Parengyodontium album, UniProt P06873); test: in vitro; settings: Proteinase K 5 μg/mL
Description: (§1) Degradation was monitored by HPLC. Solutions of individual coiled coils were prepared at 200 μM in 1× PBS and pH corrected to 7.40 ± 0.05 using 1–15 μL of 1 M NaOH. A stock solution of Proteinase K enzyme was prepared at 0.5 mg/mL. For each pair of peptides, 1.5 mL of each 200 μM solution was mixed, then 30 μL of 0.5 mg/mL Proteinase K was added to the 3 mL total mixed solution to obtain a final concentration of 5 μg/mL Proteinase K. Each degradation solution was stirred at 250 rpm for the duration of the experiment. For each time point, a 1 mL aliquot of degradation solution was added to an HPLC vial, a 100 μL injection was performed on HPLC, and the remaining 900 μL was returned to the bulk degradation solution. To normalize for slight shifts in elution time due to changing solvent or environmental conditions, a MATLAB script (included in SI) was used to align all K4^7 (for heptad degradation) or K3^11 (for hendecad degradation) peaks to the same elution time as the elution at t = 0 h.
(§2) Solutions of K4^7 and E4^7 (200 μM in 1× PBS at pH 7.4) were blended as homochiral (L-K4^7/L-E4^7) or heterochiral (D-K4^7/L-E4^7) mixtures. These blends were then incubated with 5 μg/mL Proteinase K, an enzyme known for its broad-spectrum activity and expected to cleave after the I, A, L, and E residues of these peptides.[40] Immediately after adding Proteinase K, as well as after 1, 3, 6, 12, and 24 h incubations, we used high performance liquid chromatography (HPLC) to monitor the degradation of the coiled coils.
(§3) We incubated solutions of homochiral (L-K3^11/L-E3^11) or heterochiral (D-K3^11/L-E3^11) hendecad coiled coils with 5 μg/mL Proteinase K as we did for the heptad coiled coils (200 μM each in 1× PBS at pH 7.4).

[2] = test system: Proteinase K; test: in vitro; settings: isolated enzyme proteinase k
Description: as §1, §2, §3

[3] = cited from earlier work
Text: For example, 1:1 heterochir ...

[4] = pH 7.4, percent intact by peak area (Normalized Area)

Proteinase K (Parengyodontium album, UniProt P06873), sequence (P06873 106-384): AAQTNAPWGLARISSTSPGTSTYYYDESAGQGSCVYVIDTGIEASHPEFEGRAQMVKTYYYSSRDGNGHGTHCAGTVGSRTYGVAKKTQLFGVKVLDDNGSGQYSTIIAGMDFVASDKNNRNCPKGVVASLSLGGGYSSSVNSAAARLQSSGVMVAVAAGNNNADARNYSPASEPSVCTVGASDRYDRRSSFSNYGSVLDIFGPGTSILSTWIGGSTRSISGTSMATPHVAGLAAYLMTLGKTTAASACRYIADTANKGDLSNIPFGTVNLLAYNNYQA

Molecule: CC[C@@H](C)[C@@H](NC(=O)[C@H](N)CCCCN)C(=O)N[C@H](C)C(=O)N[C@H](C)C(=O)N[C@H](CC(C)C)C(=O)N[C@H](CCCCN)C(=O)N[C@H](CCC(=O)O)C(=O)N[C@H](CCCCN)C(=O)N[C@@H](C(=O)N[C@H](C)C(=O)N[C@H](C)C(=O)N[C@H](CCCCN)C(=O)N[C@@H](C(=O)N[C@H](C)C(=O)N[C@H](C)C(=O)N[C@H](CC(C)C)C(=O)N[C@H](CCCCN)C(=O)N[C@H](CCC(=O)O)C(=O)N[C@H](CCCCN)C(=O)N[C@@H](C(=O)N[C@H](C)C(=O)N[C@H](C)C(=O)N[C@H](CCCCN)C(=O)N[C@@H](C(=O)N[C@H](C)C(=O)N[C@H](C)C(=O)N[C@H](CC(C)C)C(=O)N[C@H](CCCCN)C(=O)N[C@H](CCC(=O)O)C(=O)N[C@H](CCCCN)C(=O)N[C@@H](C(=O)N[C@H](C)C(=O)N[C@H](C)C(N)=O)[C@H](C)CC)[C@H](C)CC)[C@H](C)CC)[C@H](C)CC)[C@H](C)CC [D-K3^11] (H-[dK][dI][dA][dA][dL][dK][dE][dK][dI][dA][dA][dK][dI][dA][dA][dL][dK][dE][dK][dI][dA][dA][dK][dI][dA][dA][dL][dK][dE][dK][dI][dA][dA]-NH2)
stability in the heterochiral complex (in words) ([1]; heterochiral blend D-K3^11:L-E3^11, 1× PBS pH 7.4, HPLC, 30 h incubation): remains largely stable

Molecule: CC[C@@H](C)[C@@H](NC(=O)[C@H](N)CCCCN)C(=O)N[C@H](C)C(=O)N[C@H](C)C(=O)N[C@H](CC(C)C)C(=O)N[C@H](CCCCN)C(=O)N[C@H](CCC(=O)O)C(=O)N[C@H](CCCCN)C(=O)N[C@@H](C(=O)N[C@H](C)C(=O)N[C@H](C)C(=O)N[C@H](CC(C)C)C(=O)N[C@H](CCCCN)C(=O)N[C@H](CCC(=O)O)C(=O)N[C@H](CCCCN)C(=O)N[C@@H](C(=O)N[C@H](C)C(=O)N[C@H](C)C(=O)N[C@H](CC(C)C)C(=O)N[C@H](CCCCN)C(=O)N[C@H](CCC(=O)O)C(=O)N[C@H](CCCCN)C(=O)N[C@@H](C(=O)N[C@H](C)C(=O)N[C@H](C)C(=O)N[C@H](CC(C)C)C(=O)N[C@H](CCCCN)C(=O)N[C@H](CCC(=O)O)C(N)=O)[C@H](C)CC)[C@H](C)CC)[C@H](C)CC [D-K4^7] (H-[dK][dI][dA][dA][dL][dK][dE][dK][dI][dA][dA][dL][dK][dE][dK][dI][dA][dA][dL][dK][dE][dK][dI][dA][dA][dL][dK][dE]-NH2)
remaining at 1 h, 100 μM [2, 4]: 97%
remaining at 3 h, 100 μM [2, 4]: 97%
degradation in the heterochiral blend (in words) ([1]; heterochiral blend D-K4^7:L-E4^7, 1× PBS pH 7.4, HPLC, up to 24 h): little to no degradation

remaining at 3 h, 100 μM [2, 4]: 7%
remaining at 6 h, 100 μM [2, 4]: 0%
remaining at 12 h, 100 μM [2, 4]: 0%
remaining at 168 h, 100 μM ([2]; pH 7.4, percent of the peptide remaining): 23%
Molecule: CC[C@H](C)[C@H](NC(=O)[C@H](CCC(=O)O)NC(=O)[C@H](C)NC(=O)[C@H](C)NC(=O)[C@@H](NC(=O)[C@H](CCC(=O)O)NC(=O)[C@H](CCCCN)NC(=O)[C@H](CCC(=O)O)NC(=O)[C@H](CC(C)C)NC(=O)[C@H](C)NC(=O)[C@H](C)NC(=O)[C@@H](NC(=O)[C@H](CCC(=O)O)NC(=O)[C@H](C)NC(=O)[C@H](C)NC(=O)[C@@H](NC(=O)[C@H](CCC(=O)O)NC(=O)[C@H](CCCCN)NC(=O)[C@H](CCC(=O)O)NC(=O)[C@H](CC(C)C)NC(=O)[C@H](C)NC(=O)[C@H](C)NC(=O)[C@@H](NC(=O)[C@@H](N)CCC(=O)O)[C@@H](C)CC)[C@@H](C)CC)[C@@H](C)CC)[C@@H](C)CC)C(=O)N[C@@H](C)C(=O)N[C@@H](C)C(=O)N[C@@H](CC(C)C)C(=O)N[C@@H](CCC(=O)O)C(=O)N[C@@H](CCCCN)C(=O)N[C@@H](CCC(=O)O)C(=O)N[C@H](C(=O)N[C@@H](C)C(=O)N[C@@H](C)C(N)=O)[C@@H](C)CC [L-E3^11] (H-EIAALEKEIAAEIAALEKEIAAEIAALEKEIAA-NH2)

Molecule: CC[C@H](C)[C@H](NC(=O)[C@H](CCC(=O)O)NC(=O)[C@H](CCCCN)NC(=O)[C@H](CCC(=O)O)NC(=O)[C@H](CC(C)C)NC(=O)[C@H](C)NC(=O)[C@H](C)NC(=O)[C@@H](NC(=O)[C@H](CCC(=O)O)NC(=O)[C@H](CCCCN)NC(=O)[C@H](CCC(=O)O)NC(=O)[C@H](CC(C)C)NC(=O)[C@H](C)NC(=O)[C@H](C)NC(=O)[C@@H](NC(=O)[C@H](CCC(=O)O)NC(=O)[C@H](CCCCN)NC(=O)[C@H](CCC(=O)O)NC(=O)[C@H](CC(C)C)NC(=O)[C@H](C)NC(=O)[C@H](C)NC(=O)[C@@H](NC(=O)[C@@H](N)CCC(=O)O)[C@@H](C)CC)[C@@H](C)CC)[C@@H](C)CC)C(=O)N[C@@H](C)C(=O)N[C@@H](C)C(=O)N[C@@H](CC(C)C)C(=O)N[C@@H](CCC(=O)O)C(=O)N[C@@H](CCCCN)C(N)=O [L-E4^7] (H-EIAALEKEIAALEKEIAALEKEIAALEK-NH2)
remaining at 3 h, 100 μM ([2]; pH 7.4): 71%
remaining at 6 h, 100 μM ([2]; pH 7.4): 12%
remaining at 12 h, 100 μM ([2]; pH 7.4): 1%
remaining at 24 h, 100 μM ([2]; pH 7.4): 0%
time within which the intact peak disappears completely ([1]; heterochiral blend D-K4^7:L-E4^7, 1× PBS pH 7.4, HPLC peak at 6.9 min): ≤ 12 h

Molecule: CC[C@H](C)[C@H](NC(=O)[C@H](CCCCN)NC(=O)[C@H](C)NC(=O)[C@H](C)NC(=O)[C@@H](NC(=O)[C@H](CCCCN)NC(=O)[C@H](CCC(=O)O)NC(=O)[C@H](CCCCN)NC(=O)[C@H](CC(C)C)NC(=O)[C@H](C)NC(=O)[C@H](C)NC(=O)[C@@H](NC(=O)[C@H](CCCCN)NC(=O)[C@H](C)NC(=O)[C@H](C)NC(=O)[C@@H](NC(=O)[C@H](CCCCN)NC(=O)[C@H](CCC(=O)O)NC(=O)[C@H](CCCCN)NC(=O)[C@H](CC(C)C)NC(=O)[C@H](C)NC(=O)[C@H](C)NC(=O)[C@@H](NC(=O)[C@@H](N)CCCCN)[C@@H](C)CC)[C@@H](C)CC)[C@@H](C)CC)[C@@H](C)CC)C(=O)N[C@@H](C)C(=O)N[C@@H](C)C(=O)N[C@@H](CC(C)C)C(=O)N[C@@H](CCCCN)C(=O)N[C@@H](CCC(=O)O)C(=O)N[C@@H](CCCCN)C(=O)N[C@H](C(=O)N[C@@H](C)C(=O)N[C@@H](C)C(N)=O)[C@@H](C)CC [L-K3^11] (H-KIAALKEKIAAKIAALKEKIAAKIAALKEKIAA-NH2)
remaining at 1 h, 100 μM ([2]; pH 7.4): 77%
remaining at 3 h, 100 μM ([2]; pH 7.4): 11%
remaining at 6 h, 100 μM ([2]; pH 7.4): 0%
remaining at 12 h, 100 μM ([2]; pH 7.4): 0%
remaining at 30 h, 100 μM ([2]; pH 7.4): 0%
time to complete degradation ([1]; homochiral blend L-K3^11:L-E3^11, 1× PBS pH 7.4, HPLC): under 6 h

remaining at 3 h, 100 μM [2, 4]: 74%
remaining at 24 h, 100 μM [2, 4]: 0%
Molecule: CC[C@H](C)[C@H](NC(=O)[C@H](CCCCN)NC(=O)[C@H](CCC(=O)O)NC(=O)[C@H](CCCCN)NC(=O)[C@H](CC(C)C)NC(=O)[C@H](C)NC(=O)[C@H](C)NC(=O)[C@@H](NC(=O)[C@H](CCCCN)NC(=O)[C@H](CCC(=O)O)NC(=O)[C@H](CCCCN)NC(=O)[C@H](CC(C)C)NC(=O)[C@H](C)NC(=O)[C@H](C)NC(=O)[C@@H](NC(=O)[C@H](CCCCN)NC(=O)[C@H](CCC(=O)O)NC(=O)[C@H](CCCCN)NC(=O)[C@H](CC(C)C)NC(=O)[C@H](C)NC(=O)[C@H](C)NC(=O)[C@@H](NC(=O)[C@@H](N)CCCCN)[C@@H](C)CC)[C@@H](C)CC)[C@@H](C)CC)C(=O)N[C@@H](C)C(=O)N[C@@H](C)C(=O)N[C@@H](CC(C)C)C(=O)N[C@@H](CCCCN)C(=O)N[C@@H](CCC(=O)O)C(N)=O [L-K4^7] (H-KIAALKEKIAALKEKIAALKEKIAALKE-NH2)

Molecule: (PPG)10
solubility of heterochiral mixtures ([3]; heterochiral mixtures of triple helices): precipitate
solubility of homochiral triple helices ([3]; homochiral triple helices): soluble
